From the supplement of paper PMC11061612

Columns and labels:
[1] = test system: KMRC-20 (Kidney Carcinoma); assay: combination Emax (second highest fraction inhibited in the dose matrix, 72 h); higher = more inhibition; extreme values may be limits of the assay
In short: (§1)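 Bliss excess equals the observed combination effect minus the expected value EA + EB − EA·EB, where EA and EB are the effects of each agent alone. Combination Emax is the second-highest inhibition within the matrix. Inhibition was scaled from CellTiter-Glo 2.0 luminescence, with 0 set by vehicle wells and 1 by blank wells, after 72 hours of two-drug dosing of cells plated in 1536-well plates.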

A673 (Ewing's Sarcoma) [2] = assay: as above
In short: as §1

[3] = test system: NUGC-4 (Gastric Carcinoma); assay: as above
In short: as §1

[4] = test system: HuCCT1 (Biliary Tract Carcinoma); assay: as above
In short: as §1

CAL-72 (Osteosarcoma) = assay: as above
In short: as §1

[5] = test system: WSU-NHL (B-Cell Non-Hodgkin's Lymphoma); assay: as above
In short: as §1

[6] = test system: SW1710 (Bladder Carcinoma); assay: as above
In short: as §1

[7] = test system: SAS (Oral Cavity Carcinoma); assay: as above
In short: as §1

[8] = test system: ESS-1 (Other Solid Carcinomas); assay: as above
In short: as §1

[9] = test system: KYAE-1 (Esophageal Adenocarcinoma); assay: as above
In short: as §1

NCI-H2052 (Mesothelioma) = assay: as above
In short: as §1

[10] = test system: OE21 (Esophageal Squamous Cell Carcinoma); assay: as above
In short: as §1

[11] = test system: BE-13 (T-Lymphoblastic Leukemia); assay: as above
In short: as §1

[12] = test system: LS-123 (Colorectal Carcinoma); assay: as above
In short: as §1

EW-11 (Ewing's Sarcoma) = assay: as above
In short: as §1

A673 (Ewing's Sarcoma) [13] = assay: Bliss excess, mean over the matrix (fraction); higher = more synergy
In short: as §1

[14] = test system: Hs-746T (Gastric Carcinoma); assay: as above
In short: as §1

[15] = test system: NCI-H209 (Small Cell Lung Carcinoma); assay: as above
In short: as §1

[16] = test system: LNZTA3WT4 (Low Grade Glioma); assay: as above
In short: as §1

[17] = test system: SW1573 (Lung Adenocarcinoma); assay: as above
In short: as §1

SMILES	combination Emax [1]	combination Emax (A673 (Ewing's Sarcoma) [2])	combination Emax [3]	combination Emax [4]	combination Emax (CAL-72 (Osteosarcoma))	combination Emax [5]	combination Emax [6]	combination Emax [7]	combination Emax [8]	combination Emax [9]	combination Emax (NCI-H2052 (Mesothelioma))	combination Emax [10]	combination Emax [11]	combination Emax [12]	combination Emax (EW-11 (Ewing's Sarcoma))	Bliss excess (A673 (Ewing's Sarcoma) [13])	Bliss excess [14]	Bliss excess [15]	Bliss excess [16]	Bliss excess [17]
Cn1cnc2c(F)c(Nc3ccc(Br)cc3Cl)c(C(=O)NOCCO)cc21 [Selumetinib] + C=CCn1c(=O)c2cnc(Nc3ccc(N4CCN(C)CC4)cc3)nc2n1-c1cccc(C(C)(C)O)n1 [AZD1775] (first compound max 10 µM, partner max 1 µM)	0.567	0.203	0.526	0.793	0.519	0.854	0.264	0.678	0.936	0.116	0.284	0.683	1	0.542	0.42	-0.0806	-0.0275	-0.0211	-0.0443	-0.0582
Cn1cnc2c(F)c(Nc3ccc(Br)cc3Cl)c(C(=O)NOCCO)cc21 [Selumetinib] + CC(C)n1c(=O)n(C)c2cnc3cc(F)c(-c4ccc(OCCCN5CCCCC5)nc4)cc3c21 [AZD1390] (first compound max 10 µM, 7x7, partner max 0.3 µM)	0.131	0.185	0.481	0.517	0.165	0.205	0.196	0.408	0.246	0.144	0.193	0.386	0.179	0.488	0.103	-0.0481	-0.0257	-0.037	-0.0324	-0.0796
Cn1cnc2c(F)c(Nc3ccc(Br)cc3Cl)c(C(=O)NOCCO)cc21 [Selumetinib] + CCN(CCO)CCCOc1ccc2c(Nc3cc(CC(=O)Nc4cccc(F)c4)[nH]n3)ncnc2c1 [AZD2811] (first compound max 10 µM, 7x7, partner max 1 µM)	0.29	0.658	0.472	0.525	0.181	0.642	0.214	0.471	0.462	0.0661	0.232	0.441	0.735	0.425	0.199	-0.0233	-0.0051	0.0805	-0.0094	-0.0605
Cn1cnc2c(F)c(Nc3ccc(Br)cc3Cl)c(C(=O)NOCCO)cc21 [Selumetinib] + C[C@@H]1COCCN1C2=NC(=NC(=C2)C3(CC3)[S@](=N)(=O)C)C4=C5C=CNC5=NC=C4 [AZD6738] (first compound max 10 µM, 7x7, partner max 10 µM)	0.441	0.648	0.607	0.703	0.752	0.817	0.26	0.806	0.953	0.0615	0.395	0.837	0.784	0.517	0.592	-0.0537	0.0382	-0.0403	-0.0661	-0.0587
CC(=O)Nc1cccc(-n2c(=O)n(C3CC3)c(=O)c3c(Nc4ccc(I)cc4F)n(C)c(=O)c(C)c32)c1 [Trametinib] + Cc1nc(-c2cn3c(n2)-c2ccc(-c4cnn(C(C)(C)C(N)=O)c4)cc2OCC3)n(C(C)C)n1 [Taselisib] (first compound max 1 µM, 7x7, partner max 10 µM)	0.593	0.722	0.554	0.803	0.85	0.76	0.532	0.882	0.88	0.893	0.535	0.952	0.168	0.885	0.676	0.229	0.0172	-0.0014	0.0829	0.0334
CC1(C)CCC(CN2CCN(c3ccc(C(=O)NS(=O)(=O)c4ccc(NCC5CCOCC5)c([N+](=O)[O-])c4)c(Oc4cnc5[nH]ccc5c4)c3)CC2)=C(c2ccc(Cl)cc2)C1 [Venetoclax] + C1CN(CCC1(C(=O)N[C@@H](CCO)C2=CC=C(C=C2)Cl)N)C3=NC=NC4=C3C=CN4 [Capivasertib] (first compound max 1 µM, 7x7, partner max 3 µM)	0.294	0.588	0.121	0.24	0.554	0.977	0.23	0.286	0.891	0.407	0.329	0.48	0.379	0.34	0.711	-0.0551	-0.0705	-0.0005	-0.0297	-0.0428
CC1(C)CCC(CN2CCN(c3ccc(C(=O)NS(=O)(=O)c4ccc(NCC5CCOCC5)c([N+](=O)[O-])c4)c(Oc4cnc5[nH]ccc5c4)c3)CC2)=C(c2ccc(Cl)cc2)C1 [Venetoclax] + C=CCn1c(=O)c2cnc(Nc3ccc(N4CCN(C)CC4)cc3)nc2n1-c1cccc(C(C)(C)O)n1 [AZD1775] (first compound max 1 µM, partner max 1 µM)	0.627	0.862	0.312	0.69	0.924	0.985	0.315	0.761	1	0.706	0.249	0.636	1	0.633	0.715	0.112	-0.115	0.107	0.0509	-0.0427
CC1(C)CCC(CN2CCN(c3ccc(C(=O)NS(=O)(=O)c4ccc(NCC5CCOCC5)c([N+](=O)[O-])c4)c(Oc4cnc5[nH]ccc5c4)c3)CC2)=C(c2ccc(Cl)cc2)C1 [Venetoclax] + CCN(CCO)CCCOc1ccc2c(Nc3cc(CC(=O)Nc4cccc(F)c4)[nH]n3)ncnc2c1 [AZD2811] (first compound max 1 µM, 7x7, partner max 1 µM)	0.2	0.861	0.166	0.217	0.673	0.782	0.248	0.204	0.977	0.163	0.181	0.159	0.881	0.162	0.517	0.0295	-0.0383	0.356	0.0218	-0.0575
CC1(C)CCC(CN2CCN(c3ccc(C(=O)NS(=O)(=O)c4ccc(NCC5CCOCC5)c([N+](=O)[O-])c4)c(Oc4cnc5[nH]ccc5c4)c3)CC2)=C(c2ccc(Cl)cc2)C1 [Venetoclax] + CN(C)CCCOc1ccc(-c2ccc3ncc4c(c3c2)n(C2CCOCC2)c(=O)n4C)cn1 [AZD0156] (first compound max 1 µM, 7x7, partner max 1 µM)	0.201	0.835	0.166	0.231	0.687	0.811	0.239	0.256	0.93	0.115	0.235	0.162	0.612	0.205	0.69	0.0265	-0.0043	0.0423	-0.0469	-0.0553
CC1(C)CCC(CN2CCN(c3ccc(C(=O)NS(=O)(=O)c4ccc(NCC5CCOCC5)c([N+](=O)[O-])c4)c(Oc4cnc5[nH]ccc5c4)c3)CC2)=C(c2ccc(Cl)cc2)C1 [Venetoclax] + COc1cc(Nc2ncc3c(n2)-c2ccc(Cl)cc2C(c2c(F)cccc2OC)=NC3)ccc1C(=O)O [Alisertib] (first compound max 1 µM, 7x7, partner max 10 µM)	0.654	0.835	0.166	0.365	0.591	0.985	0.306	0.39	0.957	0.128	0.425	0.382	0.918	0.385	0.649	0.198	0.0096	0.318	0.023	-0.0548
CC1(C)CCC(CN2CCN(c3ccc(C(=O)NS(=O)(=O)c4ccc(NCC5CCOCC5)c([N+](=O)[O-])c4)c(Oc4cnc5[nH]ccc5c4)c3)CC2)=C(c2ccc(Cl)cc2)C1 [Venetoclax] + C[C@@H]1COCCN1C2=NC(=NC(=C2)C3(CC3)[S@](=N)(=O)C)C4=C5C=CNC5=NC=C4 [AZD6738] (first compound max 1 µM, 7x7, partner max 10 µM)	0.665	0.89	0.534	0.664	0.902	0.983	0.516	0.834	0.979	0.121	0.431	0.828	0.936	0.587	0.781	-0.0024	-0.063	0.127	0.0105	-0.0705
CC1(C)CCC(CN2CCN(c3ccc(C(=O)NS(=O)(=O)c4ccc(NCC5CCOCC5)c([N+](=O)[O-])c4)c(Oc4cnc5[nH]ccc5c4)c3)CC2)=C(c2ccc(Cl)cc2)C1 [Venetoclax] + C[C@@H](Nc1cc(F)cc(F)c1)c1cc(C(=O)N(C)C)cc2c(=O)cc(N3CCOCC3)oc12 [AZD8186] (first compound max 1 µM, 7x7, partner max 3 µM)	0.245	0.558	0.287	0.185	0.406	1	0.194	0.282	0.814	0.554	0.217	0.109	0.375	0.256	0.699	-0.023	-0.004	0.1	-0.0539	-0.0556
